# Assays:
# Test in all cases: relative viability (nuclei count vs DMSO), 5 days (fraction); higher = more cells survive
# LC-2-ad = tested on: LC-2-ad
# Method in brief: (§1)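 A single step with final 0.05% Triton X-100, 1% formaldehyde and 1 ug/ml Hoechst fixed the cells and stained nuclei 5 days after treatment. Lung cancer cell lines in 1536-well plates had been treated by pin tool the day after seeding with one drug alone or a fixed anchor-drug dose plus five library-drug doses (not always all listed) in √10 steps, and nuclei were counted on 4× images. Relative viability is the ratio of nuclei in treated wells to nuclei in vehicle wells, taken as the median of duplicate plates.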
# EKVX = tested on: EKVX
# Method in brief: as §1
# NCI-H1395 = tested on: NCI-H1395
# Method in brief: as §1
# NCI-H2347 = tested on: NCI-H2347
# Method in brief: as §1
# NCI-H2228 = tested on: NCI-H2228
# Method in brief: as §1
# NCI-H1651 = tested on: NCI-H1651
# Method in brief: as §1
# LXF-289 = tested on: LXF-289
# Method in brief: as §1
# CAL-12T = tested on: CAL-12T
# Method in brief: as §1
# H3255 = tested on: H3255
# Method in brief: as §1
# NCI-H2087 = tested on: NCI-H2087
# Method in brief: as §1
# SK-LU-1 = tested on: SK-LU-1
# Method in brief: as §1
# NCI-H1793 = tested on: NCI-H1793
# Method in brief: as §1
# NCI-H1915 = tested on: NCI-H1915
# Method in brief: as §1
# NCI-H1755 = tested on: NCI-H1755
# Method in brief: as §1
# COR-L 105 = tested on: COR-L 105
# Method in brief: as §1
# NCI-H1944 = tested on: NCI-H1944
# Method in brief: as §1
# NCI-H2085 = tested on: NCI-H2085
# Method in brief: as §1
# NCI-H1437 = tested on: NCI-H1437
# Method in brief: as §1
# LK-2 = tested on: LK-2
# Method in brief: as §1
# NCI-H661 = tested on: NCI-H661
# Method in brief: as §1
# SK-MES-1 = tested on: SK-MES-1
# Method in brief: as §1
# PC-3 [JPC-3] = tested on: PC-3 [JPC-3]
# Method in brief: as §1
# EMC-BAC-2 = tested on: EMC-BAC-2
# Method in brief: as §1
smiles,measurement,setting,value
Cc1cnc(-c2cnc(NCCNc3ccc(C#N)cn3)nc2-c2ccc(Cl)cc2Cl)[nH]1 + O=C(CCCCCCC(=O)Nc1ccccc1)NO [Vorinostat] (partner 1 µM),relative viability,LC-2-ad; first compound 0.08 µM,0.708
same,relative viability,LC-2-ad; first compound 0.8 µM,0.705
same,relative viability,LC-2-ad; first compound 2.53 µM,0.603
same,relative viability,EKVX; first compound 0.08 µM,0.789
same,relative viability,EKVX; first compound 0.253 µM,0.529
same,relative viability,EKVX; first compound 0.8 µM,0.658
same,relative viability,EKVX; first compound 2.53 µM,0.745
same,relative viability,NCI-H1395; first compound 0.08 µM,0.847
same,relative viability,NCI-H1395; first compound 0.253 µM,0.577
same,relative viability,NCI-H1395; first compound 0.8 µM,0.62
same,relative viability,NCI-H1395; first compound 2.53 µM,0.6
same,relative viability,NCI-H2347; first compound 0.08 µM,0.56
same,relative viability,NCI-H2347; first compound 0.253 µM,0.568
same,relative viability,NCI-H2347; first compound 0.8 µM,0.604
same,relative viability,NCI-H2347; first compound 2.53 µM,0.597
same,relative viability,NCI-H2228; first compound 0.08 µM,0.891
same,relative viability,NCI-H2228; first compound 0.253 µM,0.642
same,relative viability,NCI-H2228; first compound 0.8 µM,0.668
same,relative viability,NCI-H2228; first compound 2.53 µM,0.693
same,relative viability,NCI-H1651; first compound 0.08 µM,0.539
same,relative viability,NCI-H1651; first compound 0.253 µM,0.459
same,relative viability,NCI-H1651; first compound 0.8 µM,0.537
same,relative viability,NCI-H1651; first compound 2.53 µM,0.58
same,relative viability,LXF-289; first compound 0.08 µM,0.737
same,relative viability,LXF-289; first compound 0.253 µM,0.693
same,relative viability,LXF-289; first compound 0.8 µM,0.734
same,relative viability,LXF-289; first compound 2.53 µM,0.846
same,relative viability,CAL-12T; first compound 0.08 µM,0.928
same,relative viability,CAL-12T; first compound 0.253 µM,0.702
same,relative viability,CAL-12T; first compound 0.8 µM,0.848
same,relative viability,CAL-12T; first compound 2.53 µM,0.807
same,relative viability,H3255; first compound 0.08 µM,0.599
same,relative viability,H3255; first compound 0.253 µM,0.717
same,relative viability,H3255; first compound 0.8 µM,0.754
same,relative viability,H3255; first compound 2.53 µM,0.829
same,relative viability,NCI-H2087; first compound 0.08 µM,0.871
same,relative viability,NCI-H2087; first compound 0.8 µM,0.514
same,relative viability,NCI-H2087; first compound 2.53 µM,0.663
same,relative viability,SK-LU-1; first compound 0.08 µM,0.735
same,relative viability,SK-LU-1; first compound 0.253 µM,0.818
same,relative viability,SK-LU-1; first compound 0.8 µM,0.849
same,relative viability,SK-LU-1; first compound 2.53 µM,0.85
same,relative viability,NCI-H1793; first compound 0.08 µM,0.59
same,relative viability,NCI-H1793; first compound 0.253 µM,0.666
same,relative viability,NCI-H1793; first compound 0.8 µM,0.739
same,relative viability,NCI-H1793; first compound 2.53 µM,0.864
same,relative viability,NCI-H1915; first compound 0.08 µM,0.532
same,relative viability,NCI-H1915; first compound 0.8 µM,0.504
same,relative viability,NCI-H1915; first compound 2.53 µM,0.513
same,relative viability,NCI-H1755; first compound 0.08 µM,0.826
same,relative viability,NCI-H1755; first compound 0.253 µM,0.684
same,relative viability,NCI-H1755; first compound 0.8 µM,0.745
same,relative viability,NCI-H1755; first compound 2.53 µM,0.823
same,relative viability,COR-L 105; first compound 0.08 µM,0.942
same,relative viability,COR-L 105; first compound 0.253 µM,0.77
same,relative viability,COR-L 105; first compound 0.8 µM,0.596
same,relative viability,COR-L 105; first compound 2.53 µM,0.663
same,relative viability,NCI-H1944; first compound 0.08 µM,0.591
same,relative viability,NCI-H1944; first compound 0.8 µM,0.614
same,relative viability,NCI-H1944; first compound 2.53 µM,0.566
same,relative viability,NCI-H2085; first compound 0.08 µM,0.886
same,relative viability,NCI-H2085; first compound 0.253 µM,0.769
same,relative viability,NCI-H2085; first compound 0.8 µM,0.824
same,relative viability,NCI-H2085; first compound 2.53 µM,0.997
same,relative viability,NCI-H1437; first compound 0.08 µM,0.829
same,relative viability,NCI-H1437; first compound 0.253 µM,0.774
same,relative viability,NCI-H1437; first compound 0.8 µM,0.828
same,relative viability,NCI-H1437; first compound 2.53 µM,0.853
same,relative viability,LK-2; first compound 0.08 µM,0.274
same,relative viability,LK-2; first compound 0.253 µM,0.331
same,relative viability,LK-2; first compound 0.8 µM,0.286
same,relative viability,LK-2; first compound 2.53 µM,0.318
same,relative viability,NCI-H661; first compound 0.08 µM,0.906
same,relative viability,NCI-H661; first compound 0.253 µM,0.774
same,relative viability,NCI-H661; first compound 0.8 µM,0.782
same,relative viability,NCI-H661; first compound 2.53 µM,0.731
same,relative viability,SK-MES-1; first compound 0.08 µM,1.07
same,relative viability,SK-MES-1; first compound 0.253 µM,0.977
same,relative viability,SK-MES-1; first compound 0.8 µM,1.19
same,relative viability,SK-MES-1; first compound 2.53 µM,1.24
same,relative viability,PC-3 [JPC-3]; first compound 0.08 µM,0.811
same,relative viability,PC-3 [JPC-3]; first compound 0.253 µM,0.713
same,relative viability,PC-3 [JPC-3]; first compound 0.8 µM,0.726
same,relative viability,PC-3 [JPC-3]; first compound 2.53 µM,0.838
same,relative viability,EMC-BAC-2; first compound 0.08 µM,0.46
same,relative viability,EMC-BAC-2; first compound 0.253 µM,0.397
same,relative viability,EMC-BAC-2; first compound 0.8 µM,0.373
same,relative viability,EMC-BAC-2; first compound 2.53 µM,0.372

# From the supplement of paper PMC10307832
